Literature values, collected in US20050065128A1, “2-alkylidene-19-nor-vitamin D derivatives for the treatment of hypogonadism or andropause” (Pfizer Inc, priority 2003, published 2005).
Like-named read-outs stand apart in the source and are kept apart here.

Tests used:
[1] = system: Intestinal Calcium Transport; conditions: intraperitoneal, male weanling rats on vitamin D-deficient low-calcium diet, 24 h after last dose, mean ± SEM
[2] = system: HL-60 cells; conditions: method of Ostrem et al.
[3] = system: Serum Calcium (Bone Calcium Mobilization); conditions: for activity on bone calcium mobilization (serum calcium) relative to 1,25-(OH)2D3 (native hormone): chronic 7-day dosing in rats, fold of the native hormone; for Serum Calcium (mg/100 ml): intraperitoneal, male weanling rats on vitamin D-deficient low-calcium diet, 24 h after last dose, mean ± SEM

Row | SMILES | Intestinal Calcium Transport (S/M) ([1]; 130 pmol/day for 7 days) | Intestinal Calcium Transport (S/M) ([1]; 260 pmol/day for 7 days) | inducing differentiation of HL-60 cells to the monocyte [2] | activity on bone calcium mobilization (serum calcium) relative to 1,25-(OH)2D3 (native hormone) [3] | Serum Calcium (mg/100 ml) ([3]; 130 pmol/day for 7 days) | Serum Calcium (mg/100 ml) ([3]; 260 pmol/day for 7 days)
1 | C=C1[C@H](O)CC(=C/C=C2\CCC[C@]3(C)[C@@H]([C@@H](C)CCCC(C)(C)O)CC[C@@H]23)C[C@H]1O [2-Methylene-19-Nor-20S-1,25-(OH)2D3, (20S)-1α,25-dihydroxy-2-methylene-19-nor-vitamin D3] | no significant change | no significant change | extremely potent | at least 10 times | – | –
2 | C=C1[C@H](O)CC(=C/C=C2\CCC[C@]3(C)[C@@H]([C@H](C)CCCC(C)(C)O)CC[C@@H]23)C[C@H]1O [2-Methylene-19-Nor-1,25-(OH)2D3, 1α,25-dihydroxy-2-methylene-19-nor-vitamin D3] | no intestinal calcium transport activity | no intestinal calcium transport activity | activity similar to 1,25-(OH)2D3 | 10-100 times | extremely strong bone calcium mobilization | extremely strong bone calcium mobilization
